Results published in patent US20220017941A1, “ELECTROANALYTICAL DETERMINATION OF LEUKOCYTE ESTERASE” (Board of Regents, the University of Texas System, priority 2020, published 2022).

What was measured:
leukocyte esterase (LE) = test: Internally calibrated electrochemical continuous enzyme assay (ICECEA) of LE with ester substrate coupled to alcohol oxidase; format: biochemical, human; conditions: pH 7.40 PBS
Protocol: The original suspension of human leukocytes was diluted 10 times with a pH 7.40 0.050 M phosphate buffer saline (PBS, 154 mM NaCl) solution that contained 10 vol. % DMSO and left for 10 min to lyse the leukocytes chemically. The suspension was then sonicated for 30 s (Q125 Qsonica, 20% power) to complete the lysing process. The sonication was done in 5 s intervals with 5 s rest cycles to minimize the enzyme deactivation due to solution overheating. The lysate was centrifuged at 10000×g for 5 min, and the supernatant was transferred to a 1.70-mL microcentrifuge tube (Corning, N.Y.) and stored in a freezer at −20° C. when not in use.
Assays. The assays of LE were conducted at a N-CNT electrode by following the protocol of internally calibrated electrochemical continuous enzyme assay (ICECEA) (Zhang et. al., M.; Anal. Chem. 2013, 85, 6026-6032; Bekhit et. al., Anal. Chem. 2019, 91, 3163-3169).
(§1) The assay solution (5.00 mL) was made of pH 7.40 PBS containing both methyl pyruvate (MP) and alcohol oxidase (AOx). The current flowing through a N-CNT electrode at −0.20 V was measured continuously while a stirred assay solution was sequentially spiked with three 50-μL calibrating aliquots of H2O2 and one 50-μL aliquot of LE. This produced an ICECEA amperogram with the three current steps providing a calibration slope CS and an ascending linear current segment having an assay slope AS. The ICECEA amperograms shown were shortened to display only the linear portion of ascending current segment.
The AS and CS slopes were used to calculate the unit U of the enzymatic activity of LE:
By definition, one unit (U) of activity was equal to the amount of LE that consumed 1.0 micromole of MP per 1.0 min in a pH 7.40 PBS solution at room temperature (21° C.).
Kinetic Testing. The hypothesis formulated above was tested first by determining the kinetics of reaction 1. To ensure that the reaction was rate-limiting, the excess of AOx (25 mU) over LE (3 mU) was used. In addition, the concentration of H2O2 was kept within a linear range of calibration plot (0.50-40 μM) to avoid the non-linearity of electrode response to H2O2 from affecting kinetic measurements.
Assay of LE. The analytical merit of the coupling of reactions 1 and 2 via methanol was evaluated by using the MP to assay LE in PBS samples. To conduct the assay under the zero-order kinetics, the high concentration of MP was selected (88 μM, >10Km).
Control Experiments with Small Esters Other Than Methyl Pyruvate. […] The data in FIG. 7 underline the uniqueness of the methyl pyruvate-based method for the quantification of LE as a biomarker of infection.

Solubility in water = format: physicochemical
[1] = Non-enzymatic hydrolysis in assay solution (steady current steps before LE addition); format: physicochemical; conditions: pH 7.40 PBS assay solution, <200 s
Protocol: as §1
The slope of current segments at >200 s increased with the concentration of MP in a solution.

[2] = 1.4 nM LE, 25 mU AOx, 1-40 μM MP, Michaelis-Menten fit, RSD<10%

For COC(=O)C(C)=O [MP, Methyl pyruvate], the “specificity constant kcatKm^−1” value (leukocyte esterase (LE); [2]) was 2.3e+06 M⁻¹ s⁻¹, the turnover number kcat (leukocyte esterase (LE); [2]) was 15 s⁻¹ and the “recognition of ester by LE as substrate (ascending current segment after LE addition at 200 s)” value (leukocyte esterase (LE); 88 μM ester, 25 mU AO, N-CNT electrode −0.20 V, FIG. 7) was “produced the ascending current segment”. For the same compound, the “average specific activity of LE reacting with MP (slope of LE activity vs. LE concentration)” value (leukocyte esterase (LE); 88 μM MP, 25 mU AOx, linear up to 260 μg L^−1 LE) was 12 U mg^−1, the solubility in water (Solubility in water) was “good solubility in water” and the non-enzymatic hydrolysis [1] was “slow on the experimental time scale”.
